ChEMBL document CHEMBL1201862, “PubChem BioAssay data set” (2004)
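Five compound concentrations were applied to cells in 96-well plates for 48 hours; endpoints were derived by simple linear interpolation of the resulting dose-response curve. GI50 marks 50% less growth.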 The source made the active and inactive calls. No stated cut-off is given here; in the data, active = GI50 up to about 1.1 µM and inactive = higher.

What was measured:
Test in all cases: inhibition of tumour cell growth, NCI panel, 48 h
[1] = test system: 786-0
[2] = test system: A549
[3] = test system: ACHN
[4] = test system: EKVX
[5] = test system: HOP-92
[6] = test system: HT-29
[7] = test system: K562
[8] = test system: M14
[9] = test system: MDA-MB-435
[10] = test system: MDA-N
[11] = test system: NCI-H23
[12] = test system: NCI-H460
[13] = test system: NCI/ADR-RES
[14] = test system: PC-3
[15] = test system: SF-268
[16] = test system: SK-OV-3
[17] = test system: SNB-19
[18] = test system: SR
[19] = test system: U-251
[20] = test system: UACC-257

SMILES | GI50 [1] | GI50 [2] | GI50 [3] | GI50 [4] | GI50 [5] | GI50 [6] | GI50 [7] | GI50 [8] | GI50 [9] | GI50 [10] | GI50 [11] | GI50 [12] | GI50 [13] | GI50 [14] | GI50 [15] | GI50 [16] | GI50 [17] | GI50 [18] | GI50 [19] | GI50 [20]
C=C1CC2(CC(c3ccccc3OC)OC(c3ccccc3OC)C2)OC1=O (stereo not given) | 1.63 µM (inactive) | 4.76 µM (inactive) | 2.29 µM (inactive) | 14.6 µM (inactive) | 1.64 µM (inactive) | 2.06 µM (inactive) | 2.06 µM (inactive) | 1.72 µM (inactive) | 1.91 µM (inactive) | 1.83 µM (inactive) | 2.1 µM (inactive) | 5.75 µM (inactive) | 2.47 µM (inactive) | 2.06 µM (inactive) | 2.55 µM (inactive) | 12.8 µM (inactive) | 7.55 µM (inactive) | 1.84 µM (inactive) | 7.16 µM (inactive) | 2.07 µM (inactive)
O=C1c2ccccc2C(=O)N1C(=S)c1ccccc1 | > 100 µM (inactive) | > 100 µM (inactive) | > 100 µM (inactive) | > 100 µM (inactive) | > 100 µM (inactive) | > 100 µM (inactive) | > 100 µM (inactive) | > 100 µM (inactive) | > 100 µM (inactive) | > 100 µM (inactive) | > 100 µM (inactive) | > 100 µM (inactive) | > 100 µM (inactive) | > 100 µM (inactive) | > 100 µM (inactive) | > 100 µM (inactive) | > 100 µM (inactive) | > 100 µM (inactive) | > 100 µM (inactive) | > 100 µM (inactive)
COc1cc2c(NCCCCCO)ncnc2c(OC)c1OC | > 100 µM (inactive) | > 100 µM (inactive) | > 100 µM (inactive) | > 100 µM (inactive) | 43.8 µM (inactive) | > 100 µM (inactive) | > 100 µM (inactive) | > 100 µM (inactive) | > 100 µM (inactive) | > 100 µM (inactive) | > 100 µM (inactive) | > 100 µM (inactive) | > 100 µM (inactive) | > 100 µM (inactive) | > 100 µM (inactive) | > 100 µM (inactive) | > 100 µM (inactive) | > 87.9 µM (inactive) | > 100 µM (inactive) | > 100 µM (inactive)
O=P(Nc1ccccc1)(Oc1ccccc1)N1CCN(c2ccccc2)CC1 (stereo not given) | 22.1 µM (inactive) | 17.5 µM (inactive) | 22.4 µM (inactive) | 17.4 µM (inactive) | 18.7 µM (inactive) | 15.8 µM (inactive) | 49.1 µM (inactive) | 15.2 µM (inactive) | 20.8 µM (inactive) | 16.9 µM (inactive) | 19.6 µM (inactive) | 17.4 µM (inactive) | 17.6 µM (inactive) | 18.1 µM (inactive) | 23.2 µM (inactive) | 16.8 µM (inactive) | 15.8 µM (inactive) | 34.4 µM (inactive) | 16.8 µM (inactive) | 20.9 µM (inactive)
O=C1C(NS(=O)(=O)c2ccccc2)=C(n2cnc3ccccc32)C(=O)c2ccccc21 | 60.4 µM (inactive) | > 100 µM (inactive) | > 100 µM (inactive) | > 100 µM (inactive) | 41.4 µM (inactive) | > 100 µM (inactive) | > 100 µM (inactive) | > 100 µM (inactive) | > 100 µM (inactive) | > 100 µM (inactive) | 58.2 µM (inactive) | > 100 µM (inactive) | > 100 µM (inactive) | > 100 µM (inactive) | 86.3 µM (inactive) | > 100 µM (inactive) | 38.4 µM (inactive) | > 100 µM (inactive) | 46.1 µM (inactive) | > 100 µM (inactive)
COc1ccc(C2C(C)C(=O)C(C)C(c3ccc(OC)cc3)N2N=O)cc1 (stereo not given) | 84.3 µM (inactive) | 239 µM (inactive) | 175 µM (inactive) | > 830 µM (inactive) | 53.5 µM (inactive) | > 738 µM (inactive) | > 1000 µM (inactive) | 537 µM (inactive) | 166 µM (inactive) | 163 µM (inactive) | 261 µM (inactive) | > 659 µM (inactive) | 258 µM (inactive) | 253 µM (inactive) | 171 µM (inactive) | 257 µM (inactive) | 195 µM (inactive) | > 685 µM (inactive) | 117 µM (inactive) | > 703 µM (inactive)
CC(C)C[C@H]1[C@@H](OCc2ccccc2)COS(=O)(=O)N1[C@H](C)c1ccccc1 | 23.4 µM (inactive) | 29.5 µM (inactive) | 48 µM (inactive) | 22.1 µM (inactive) | > 100 µM (inactive) | 26.9 µM (inactive) | 5.24 µM (inactive) | > 100 µM (inactive) | 49.7 µM (inactive) | > 78.5 µM (inactive) | 6.98 µM (inactive) | 11.7 µM (inactive) | 52.2 µM (inactive) | 7.38 µM (inactive) | > 93.1 µM (inactive) | > 93.1 µM (inactive) | > 46 µM (inactive) | 3.24 µM (inactive) | 15.2 µM (inactive) | 20 µM (inactive)
Cc1cnc(NCCCN(C)C)c2c1[nH]c1ccc3cc(O)ccc3c12 | 0.2 µM (active) | 0.365 µM (active) | 0.552 µM (active) | 1.49 µM (inactive) | 0.187 µM (active) | 0.362 µM (active) | 1.28 µM (inactive) | 1.28 µM (inactive) | 1.1 µM (active) | 1.04 µM (active) | 0.499 µM (active) | 0.0439 µM (active) | 3.44 µM (inactive) | 0.585 µM (active) | 0.288 µM (active) | 0.569 µM (active) | 0.48 µM (active) | 0.0617 µM (active) | 0.164 µM (active) | 4.6 µM (inactive)
CC(=O)OCc1cc(OC(C)=O)c2cc3c(OC(C)=O)cccc3c(OC(C)=O)c2c1 | 13 µM (inactive) | 12.5 µM (inactive) | 11.6 µM (inactive) | 6.7 µM (inactive) | 20.4 µM (inactive) | 14.8 µM (inactive) | 19.2 µM (inactive) | 12.5 µM (inactive) | 17.7 µM (inactive) | 17.1 µM (inactive) | 17.1 µM (inactive) | 5.65 µM (inactive) | 17.2 µM (inactive) | 16.5 µM (inactive) | 21.2 µM (inactive) | 18.5 µM (inactive) | 18.3 µM (inactive) | 19.5 µM (inactive) | 15.6 µM (inactive) | 22 µM (inactive)
CN1CCCCC1CCN1c2ccccc2Sc2ccc([S+](C)[O-])cc21 (stereo not given) [MESORIDAZINE] | > 100 µM (inactive) | > 100 µM (inactive) | > 100 µM (inactive) | > 100 µM (inactive) | > 100 µM (inactive) | > 100 µM (inactive) | > 100 µM (inactive) | > 100 µM (inactive) | > 100 µM (inactive) | > 100 µM (inactive) | > 100 µM (inactive) | > 100 µM (inactive) | > 100 µM (inactive) | > 100 µM (inactive) | > 100 µM (inactive) | > 100 µM (inactive) | > 100 µM (inactive) | > 100 µM (inactive) | > 100 µM (inactive) | > 100 µM (inactive)
CC[C@@H]1CSC(/C=C/C2OC3OC(C)(C)OC3C3OC(C)(C)OC23)=N1 (stereo not given in full) | 3.98 µM (inactive) | 22.5 µM (inactive) | 9.44 µM (inactive) | 11.8 µM (inactive) | 3.7 µM (inactive) | 3.94 µM (inactive) | 3.91 µM (inactive) | 10 µM (inactive) | 4.15 µM (inactive) | 4.5 µM (inactive) | 5.05 µM (inactive) | 21.5 µM (inactive) | 12.7 µM (inactive) | 8.2 µM (inactive) | 6.03 µM (inactive) | 35.8 µM (inactive) | 20.4 µM (inactive) | 3.89 µM (inactive) | 13.6 µM (inactive) | 10.1 µM (inactive)
